According to US20160220720A1, “COMPOSITIONS COMPRISING POLYAMINE POLYMER COMPATIBLE PERFUME MATERIALS” (priority 2013, published 2016):
Several values for one entry are separate records, joined by “and”; a condition that tells them apart may be missing. Identical values can stand only once.

Assay: GC-MS head space ratio of perfume raw materials with versus without polyamine polymer (R)
Format: physicochemical
Details: aqueous fabric refresher formulation pH 6.8, 0.05% Lupamin 1595; head space after 1 hr room temperature and 20 minutes at 40° C.; Control without polyamine polymer = 1.000
Procedure: R=head space of aqueous composition containing polyamine/head space of aqueous composition nil polyamine polymer
Polyamine polymer perfume interactions were studied in aqueous fabric refresher formulations. Aqueous formulations containing a perfume mixture and a polyamine polymer was prepared according to Table 2 and studied against a control fabric refresher formulation without a polyamine polymer. Studies were conducted using 500 ppm (0.05%) polyamine polymer and perfume mixtures at 2 levels (500 ppm (0.05%) and 10,000 ppm […]).
GC-MS was used to study polymer perfume aldehyde interactions using the formulations prepared in Example 1. For the GC-MS analysis, 2 ml of each sample was transferred into 20 ml headspace vial, equilibrated at room temperature for 1 hr, and incubated at 40° C. for 20 minutes. Then, 1 ml of head space was injected into GC-MS using 1 to 10 split, and perfume raw material intensities were measured. Perfume raw material peak area ratios were then calculated using the control sample without a polyamine polymer.
PRMs that react with polyamine polymer have a headspace concentration less than 1.00 with respect to the normalized Control.

**Q.** For CC(=O)c1ccc(C(C)=O)cc1 [1,4-diacety lbenzene], which “GC-MS head space peak area ratio normalized to Control” value is on record?
**A.** The value was 0.913.

**Q.** Which “GC-MS head space peak area ratio normalized to Control” value does the source give for CC(=O)c1cccs1 [2-acetyl thiophene] here?
**A.** The value was 0.794.

**Q.** Which “GC-MS head space peak area ratio normalized to Control” value does the source give for CCCC(C)C=O (stereo not drawn) [2-methyl petanal] here?
**A.** Its value is 0.864.

**Q.** Which “GC-MS head space peak area ratio normalized to Control” value does the source give for CC(C)=CCCC(C)CCCC(C)C=O (stereo not drawn) [Adoxal] here?
**A.** Its value is 0.751.

**Q.** For O=Cc1ccccc1 [Benzaldehyde], which “GC-MS head space peak area ratio normalized to Control” value is on record?
**A.** Its value is 1.030.

**Q.** For CC(=O)/C=C/C1=C(C)CCCC1(C)C [Beta Ionone], which “GC-MS head space peak area ratio normalized to Control” value is on record?
**A.** The value was 1.222.

**Q.** For C=C(C)C1CC=C(C)C(=O)C1 (stereo not drawn) [Carvone], which “GC-MS head space peak area ratio normalized to Control” value is on record?
**A.** The value was 1.103.

**Q.** With CC(C)=CCCC(C)CC=O (stereo not drawn) [Citronellal] as the compound, how does the “GC-MS head space peak area ratio normalized to Control” value read?
**A.** The value was 2.597.

**Q.** With CC(C)c1ccc(C=O)cc1 [Cuminaldehyde] as the compound, how does the “GC-MS head space peak area ratio normalized to Control” value read?
**A.** Its value is 0.977.

**Q.** Which “GC-MS head space peak area ratio normalized to Control” value does the source give for C/C=C/C(=O)C1C(C)C=CCC1(C)C (stereo not drawn) [Delta-damascone] here?
**A.** The value was 1.228.

**Q.** Which “GC-MS head space peak area ratio normalized to Control” value does the source give for O=CCCC=C1CC2CC1C1CCCC21 (stereo not drawn) [Dupical] here?
**A.** Its value is 0.932.

**Q.** With CCCCCC=O [Hexanal] as the compound, how does the “GC-MS head space peak area ratio normalized to Control” value read?
**A.** Its value is 0.222.

**Q.** Which “GC-MS head space peak area ratio normalized to Control” value does the source give for CCCCCCC(C=O)=Cc1ccccc1 [Hexylcinnamicaldehyde] here?
**A.** The value was 1.480.

**Q.** With CCCCCCCCCCCC=O [Lauric Aldehyde] as the compound, how does the “GC-MS head space peak area ratio normalized to Control” value read?
**A.** Its value is 0.169.

**Q.** For CCCCCCCCCC(C)C=O (stereo not drawn) [Methyl Nonyl Acetaldehyde], which “GC-MS head space peak area ratio normalized to Control” value is on record?
**A.** Its value is 0.772.

**Q.** With CCCCCCCCC(C)C=O (stereo not drawn) [Methyl Octyl acetaldehyde] as the compound, how does the “GC-MS head space peak area ratio normalized to Control” value read?
**A.** Its value is 0.836.

**Q.** For CC(C)=CCC/C(C)=C\C=O [Neral], which “GC-MS head space peak area ratio normalized to Control” value is on record?
**A.** Its value is 0.261.

**Q.** With CCCCCCCCC=O [Nonaldehyde] as the compound, how does the “GC-MS head space peak area ratio normalized to Control” value read?
**A.** Its value is 0.209.

**Q.** With CC(C)CCCC(C)CC=O (stereo not drawn) [Tetrahydrogeranial] as the compound, how does the “GC-MS head space peak area ratio normalized to Control” value read?
**A.** The value was 0.415.

**Q.** For CCC/C=C/C=O [Trans-2-hexenal], which “GC-MS head space peak area ratio normalized to Control” value is on record?
**A.** Its value is 0.226.

**Q.** For CCCCCCCCCCC=CC=O [Tridecenal], which “GC-MS head space peak area ratio normalized to Control” value is on record?
**A.** The value was 0.470.

**Q.** Which “GC-MS head space peak area ratio normalized to Control” value does the source give for COc1ccc(C=O)cc1 [p-Anisaldehyde] here?
**A.** Its value is 1.521.

Same assay, conditions: aqueous fabric refresher formulation pH 6.8, 0.05% Lupamin 1595; head space after 1 hr room temperature and 20 minutes at 40° C.; Control without polyamine polymer = 1.000; listed as Kaovone

**Q.** With CC(=O)/C(C)=C(/C)C(C)C(C)(C)C (stereo not drawn) [Koavone] as the compound, how does the “GC-MS head space peak area ratio normalized to Control” value read?
**A.** The value was 1.185 and 1.159 and 1.171.

Same assay, conditions: head space with polyamine polymer / head space nil polyamine polymer

**Q.** With CC(C)=CCCC(C)CCCC(C)C=O (stereo not drawn) [Adoxal] as the compound, how does the “Obs. Lupamin Ratio” value read?
**A.** The value was 0.79.

**Q.** For CC(C)=CCC/C(C)=C/C=O [Citral], which “Obs. Lupamin Ratio” value is on record?
**A.** The value was 0.23.

**Q.** Which “Obs. Lupamin Ratio” value does the source give for O=Cc1ccc2c(c1)OCO2 [Heliotropin] here?
**A.** Its value is 1.65.

**Q.** For CC1(C)CCc2ccc(CCC=O)cc21 [Hivernal], which “Obs. Lupamin Ratio” value is on record?
**A.** The value was 0.17.

**Q.** With CC(=O)/C(C)=C(/C)C(C)C(C)(C)C (stereo not drawn) [Koavone] as the compound, how does the “Obs. Lupamin Ratio” value read?
**A.** Its value is 1.17.

**Q.** For O=CC1CCC2C3CCC(C3)C12 (stereo not drawn) [Melozone], which “Obs. Lupamin Ratio” value is on record?
**A.** The value was 0.28.

**Q.** Which “Obs. Lupamin Ratio” value does the source give for CCCCCCCCC=O [Nonaldehyde] here?
**A.** Its value is 0.21.

**Q.** Which “Obs. Lupamin Ratio” value does the source give for CC(C)CCCC(C)CC=O (stereo not drawn) [Tetrahydrogeranial] here?
**A.** Its value is 0.42.

**Q.** With COc1ccc(C=O)cc1 [p-Anisaldehyde] as the compound, how does the “Obs. Lupamin Ratio” value read?
**A.** The value was 1.52.

Assay: not given
Details: ambient temperature; cited from earlier work

**Q.** For “hydroxypropyl modified beta cyclodextrin”, which “water solubility (benchmark)” value is on record?
**A.** Its value is no less than 60 g/100 ml.
